Laboratory results reported in ChEMBL document CHEMBL2380240, “Discovery, synthesis, selectivity modulation and DMPK characterization of 5-azaspiro[2.4]heptanes as potent orexin receptor antagonists” (Bioorg Med Chem Lett, 2013).

What was measured:
CYP2D6 [1] = target: T1, CYP2D6 (Homo sapiens, UniProt P10635); experiment: Inhibition of human recombinant CYP2D6 at 3 uM by fluorimetric assay; format: ADME
CYP3A4 [2] = target: T2, CYP3A4 (Homo sapiens, UniProt P08684); experiment: Inhibition of human recombinant CYP3A4 using DBF as substrate at 3 uM by fluorimetric assay; format: ADME; details: recombinant CYP3A4, probe DBF
CYP2C9 [3] = target: T3, CYP2C9 (Homo sapiens, UniProt P11712); experiment: Inhibition of human recombinant CYP2C9 at 3 uM by fluorimetric assay; format: ADME
CYP3A4 [4] = target: T2, CYP3A4; experiment: Inhibition of human recombinant CYP3A4 using BFC as substrate at 3 uM by fluorimetric assay; format: ADME; details: recombinant CYP3A4, probe BFC
CYP1A2 [5] = target: T4, CYP1A2 (Homo sapiens, UniProt P05177); experiment: Inhibition of human recombinant CYP1A2 at 3 uM by fluorimetric assay; format: ADME
T4 sequence (P05177 whole entry): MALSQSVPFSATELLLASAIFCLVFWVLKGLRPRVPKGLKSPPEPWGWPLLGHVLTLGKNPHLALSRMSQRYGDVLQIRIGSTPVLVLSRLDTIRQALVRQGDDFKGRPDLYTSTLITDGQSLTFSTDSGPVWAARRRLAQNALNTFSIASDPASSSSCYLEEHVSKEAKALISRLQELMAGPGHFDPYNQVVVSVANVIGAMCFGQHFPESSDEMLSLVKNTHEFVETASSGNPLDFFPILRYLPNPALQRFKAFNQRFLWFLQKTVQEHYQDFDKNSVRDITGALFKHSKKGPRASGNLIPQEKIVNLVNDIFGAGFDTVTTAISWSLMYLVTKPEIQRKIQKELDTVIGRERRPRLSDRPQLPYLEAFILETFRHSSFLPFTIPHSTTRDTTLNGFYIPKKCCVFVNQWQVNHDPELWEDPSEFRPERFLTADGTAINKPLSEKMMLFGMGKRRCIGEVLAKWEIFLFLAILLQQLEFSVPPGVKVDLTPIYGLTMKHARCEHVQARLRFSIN

[6] = target: T5, Orexin/Hypocretin receptor type 1 (Homo sapiens) (UniProt O43613); experiment: Antagonist activity at human recombinant OX1 receptor expressed in CHO cells assessed as OXA-stimulated intracellular calcium mobilization by FLIPR assay; format: functional, cell-based
T5 sequence (whole entry): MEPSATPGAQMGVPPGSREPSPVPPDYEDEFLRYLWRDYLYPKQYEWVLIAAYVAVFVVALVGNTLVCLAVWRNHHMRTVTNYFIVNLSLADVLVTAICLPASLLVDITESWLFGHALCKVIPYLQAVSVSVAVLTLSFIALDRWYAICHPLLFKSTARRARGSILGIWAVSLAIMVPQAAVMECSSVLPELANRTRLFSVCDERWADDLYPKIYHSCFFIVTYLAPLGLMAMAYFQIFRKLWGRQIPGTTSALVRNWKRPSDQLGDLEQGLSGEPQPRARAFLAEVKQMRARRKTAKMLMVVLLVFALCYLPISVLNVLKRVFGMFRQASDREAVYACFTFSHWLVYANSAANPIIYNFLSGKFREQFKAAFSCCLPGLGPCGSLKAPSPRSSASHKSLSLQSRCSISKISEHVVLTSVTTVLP

CYP2C19 [7] = target: T6, CYP2C19 (Homo sapiens, UniProt P33261); experiment: Inhibition of human recombinant CYP2C19 at 3 uM by fluorimetric assay; format: ADME
[8] = target: T7, Orexin receptor type 2 (Homo sapiens) (UniProt O43614); experiment: Antagonist activity at human recombinant OX2 receptor expressed in HEK293 cells assessed as OXB-stimulated intracellular calcium mobilization by FLIPR assay; format: functional, cell-based
T7 sequence (whole entry): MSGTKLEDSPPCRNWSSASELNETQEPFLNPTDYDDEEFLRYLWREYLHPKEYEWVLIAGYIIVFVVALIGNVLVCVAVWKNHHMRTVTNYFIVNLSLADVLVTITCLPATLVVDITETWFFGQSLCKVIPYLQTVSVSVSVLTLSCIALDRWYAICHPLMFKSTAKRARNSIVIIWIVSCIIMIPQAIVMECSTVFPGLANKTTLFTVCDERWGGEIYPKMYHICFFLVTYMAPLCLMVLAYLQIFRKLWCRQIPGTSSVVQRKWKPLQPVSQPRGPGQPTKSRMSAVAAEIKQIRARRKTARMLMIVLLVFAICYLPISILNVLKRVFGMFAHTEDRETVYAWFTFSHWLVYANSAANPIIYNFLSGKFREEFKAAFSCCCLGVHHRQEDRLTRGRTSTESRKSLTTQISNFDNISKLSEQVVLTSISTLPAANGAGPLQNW

CYP2C19 [9] = target: T6, CYP2C19; experiment: Inhibition of human recombinant CYP2C19 at 1 uM by fluorimetric assay; format: ADME
CYP3A4 [10] = target: T2, CYP3A4; experiment: Inhibition of human recombinant CYP3A4 using BFC as substrate at 1 uM by fluorimetric assay; format: ADME; details: recombinant CYP3A4, probe BFC
CYP2D6 [11] = target: T1, CYP2D6; experiment: Inhibition of human recombinant CYP2D6 at 1 uM by fluorimetric assay; format: ADME
CYP2C9 [12] = target: T3, CYP2C9; experiment: Inhibition of human recombinant CYP2C9 at 1 uM by fluorimetric assay; format: ADME
CYP1A2 [13] = target: T4, CYP1A2; experiment: Inhibition of human recombinant CYP1A2 at 1 uM by fluorimetric assay; format: ADME
CYP3A4 [14] = target: T2, CYP3A4; experiment: Inhibition of human recombinant CYP3A4 using DBF as substrate at 1 uM by fluorimetric assay; format: ADME; details: recombinant CYP3A4, probe DBF
[15] = Volume of distribution at steady state in rat; format: ADME, organism-based; details: in vivo, read-out: Vdss
[16] = Plasma clearance in rat at 1 mg/kg, iv; format: ADME, organism-based; design: dose 1 mg/kg, route intravenous
[17] = Ratio of drug uptake from rat brain to plasma at 1 mg/kg, iv after 1 hr; format: ADME, organism-based; design: dose 1 mg/kg, route intravenous; details: read-out: BPR

T1 sequence (P10635 whole entry): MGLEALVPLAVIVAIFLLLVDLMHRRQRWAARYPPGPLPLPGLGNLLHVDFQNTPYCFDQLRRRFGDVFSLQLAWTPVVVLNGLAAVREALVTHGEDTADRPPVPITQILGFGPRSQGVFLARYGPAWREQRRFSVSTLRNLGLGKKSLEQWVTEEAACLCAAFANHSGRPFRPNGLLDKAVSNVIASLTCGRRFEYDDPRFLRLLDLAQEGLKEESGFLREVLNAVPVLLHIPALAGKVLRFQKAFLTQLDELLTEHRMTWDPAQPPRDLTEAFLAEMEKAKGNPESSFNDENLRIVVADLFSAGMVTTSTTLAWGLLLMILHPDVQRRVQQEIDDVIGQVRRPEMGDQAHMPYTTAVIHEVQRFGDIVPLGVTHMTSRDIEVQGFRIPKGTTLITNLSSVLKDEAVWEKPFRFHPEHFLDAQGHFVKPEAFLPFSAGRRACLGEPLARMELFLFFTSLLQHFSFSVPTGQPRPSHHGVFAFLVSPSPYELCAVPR
T2 sequence (P08684 whole entry): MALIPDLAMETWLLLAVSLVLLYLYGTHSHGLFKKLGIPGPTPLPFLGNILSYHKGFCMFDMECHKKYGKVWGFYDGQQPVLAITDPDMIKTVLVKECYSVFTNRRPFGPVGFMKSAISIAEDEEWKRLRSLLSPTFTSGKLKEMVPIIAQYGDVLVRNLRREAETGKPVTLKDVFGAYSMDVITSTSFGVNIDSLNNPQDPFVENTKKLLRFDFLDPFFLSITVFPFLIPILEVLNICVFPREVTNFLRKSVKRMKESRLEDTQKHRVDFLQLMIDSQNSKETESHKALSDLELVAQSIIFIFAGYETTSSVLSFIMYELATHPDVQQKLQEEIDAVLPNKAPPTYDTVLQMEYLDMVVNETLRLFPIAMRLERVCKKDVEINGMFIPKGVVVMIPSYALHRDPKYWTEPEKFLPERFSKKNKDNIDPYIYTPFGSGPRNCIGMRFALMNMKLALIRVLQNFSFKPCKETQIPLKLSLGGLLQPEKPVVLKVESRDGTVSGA
T3 sequence (P11712 whole entry): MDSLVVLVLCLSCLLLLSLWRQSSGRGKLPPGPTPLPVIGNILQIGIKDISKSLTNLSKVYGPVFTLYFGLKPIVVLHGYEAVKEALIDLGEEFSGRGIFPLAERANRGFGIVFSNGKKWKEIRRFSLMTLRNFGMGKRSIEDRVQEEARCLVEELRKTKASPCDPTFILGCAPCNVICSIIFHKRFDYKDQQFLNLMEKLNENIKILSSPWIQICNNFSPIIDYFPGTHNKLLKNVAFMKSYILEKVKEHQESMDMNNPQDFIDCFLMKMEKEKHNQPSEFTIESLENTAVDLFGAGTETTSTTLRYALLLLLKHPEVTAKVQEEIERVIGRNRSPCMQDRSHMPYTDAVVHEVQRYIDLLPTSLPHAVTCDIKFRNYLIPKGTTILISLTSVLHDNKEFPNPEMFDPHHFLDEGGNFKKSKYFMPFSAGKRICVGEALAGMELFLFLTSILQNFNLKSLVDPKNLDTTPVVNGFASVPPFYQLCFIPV
T6 sequence (P33261 whole entry): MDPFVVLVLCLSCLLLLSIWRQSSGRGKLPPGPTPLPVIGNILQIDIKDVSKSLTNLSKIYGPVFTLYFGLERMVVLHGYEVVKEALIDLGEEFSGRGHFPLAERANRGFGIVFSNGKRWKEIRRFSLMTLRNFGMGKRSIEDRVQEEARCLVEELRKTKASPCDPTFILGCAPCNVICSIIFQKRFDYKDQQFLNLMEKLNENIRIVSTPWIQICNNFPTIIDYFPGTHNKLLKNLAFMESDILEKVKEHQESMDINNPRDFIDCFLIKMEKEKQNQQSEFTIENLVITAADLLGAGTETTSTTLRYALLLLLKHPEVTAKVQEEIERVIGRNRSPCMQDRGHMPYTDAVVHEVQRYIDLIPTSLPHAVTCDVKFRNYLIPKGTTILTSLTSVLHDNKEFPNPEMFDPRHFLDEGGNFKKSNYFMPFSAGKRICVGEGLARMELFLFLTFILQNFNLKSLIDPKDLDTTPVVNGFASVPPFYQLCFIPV

inhibition at 3 µM (CYP2D6 [1]) [%]	inhibition at 3 µM (CYP3A4 [2]) [%]	inhibition at 3 µM (CYP2C9 [3]) [%]	inhibition at 3 µM (CYP3A4 [4]) [%]	inhibition at 3 µM (CYP1A2 [5]) [%]	pKb [6]	inhibition at 3 µM (CYP2C19 [7]) [%]	pKb [8]	Compound	other results
< 47	< 47	< 47	< 47	< 47	7.7	< 47	5	O=C(c1ncccc1-c1ncccn1)N1CC2(CC2)C[C@H]1CNc1ccc(C(F)(F)F)cn1	–
–	–	–	–	–	–	–	–	Cc1ccc(-c2ncccn2)c(C(=O)N2CC3(CC3)C[C@H]2CNc2cc(C#N)ccn2)n1	inhibition at 1 µM (CYP2C19 [9]): < 17%; inhibition at 1 µM (CYP3A4 [10]): < 17%; inhibition at 1 µM (CYP2D6 [11]): < 17%; inhibition at 1 µM (CYP2C9 [12]): < 17%; inhibition at 1 µM (CYP1A2 [13]): < 17%; inhibition at 1 µM (CYP3A4 [14]): < 17%
< 39	< 39	< 39	< 39	< 39	6.7	< 39	5	O=C(c1nc(C(F)(F)F)ccc1-c1ncccn1)N1CC2(CC2)C[C@H]1CNc1ccc(C(F)(F)F)cn1	–
–	–	–	–	–	8.1	–	7.1	O=C(c1cc(Cl)ccc1-c1ncccn1)N1CC2(CC2)C[C@H]1CNc1cc(C(F)(F)F)ccn1	inhibition at 1 µM (CYP2C19 [9]): < 57%; inhibition at 1 µM (CYP3A4 [10]): < 57%; inhibition at 1 µM (CYP2D6 [11]): < 57%; inhibition at 1 µM (CYP2C9 [12]): < 57%; inhibition at 1 µM (CYP1A2 [13]): < 57%; inhibition at 1 µM (CYP3A4 [14]): < 57%
< 85	< 85	< 85	< 85	< 85	8.9	< 85	8.3	Cc1cnn(-c2ccc(C)nc2C(=O)N2CC3(CC3)C[C@H]2CNc2ccc(C(F)(F)F)cn2)c1	–
–	–	–	–	–	7.7	–	< 5	Cc1nc(C(=O)N2CCC3(CC3)C[C@H]2CNc2ccc(C(F)(F)F)cn2)c(-c2ccccc2)s1	–
< 22	< 22	< 22	< 22	< 22	8.1	< 22	7.2	O=C(c1cc(Cl)ccc1-c1ncccn1)N1CC2(CC2)C[C@H]1CNc1ccc(C(F)(F)F)cn1	–
–	–	–	–	–	8.7	–	6.6	Cc1ccc(-c2ncccn2)c(C(=O)N2CC3(CC3)C[C@H]2CNc2ccc(C(F)(F)F)cn2)c1	–
–	–	–	–	–	7.9	–	< 5	Cc1nc(C(=O)N2CCC3(CC3)C[C@H]2CNc2ccc(Cl)cn2)c(-c2ccccc2)s1	–
–	–	–	–	–	8.1	–	< 5	Cc1ccc(-n2nccn2)c(C(=O)N2CC3(CC3)C[C@H]2CNc2ccc(Cl)cn2)c1	–
–	–	–	–	–	6.1	–	7	Cc1ccnc(NC[C@@H]2CC3(CC3)CN2C(=O)c2nc(C)sc2-c2ccccc2)n1	–
–	–	–	–	–	7.8	–	8.6	Cc1cc(C(F)(F)F)cc(NC[C@@H]2CC3(CC3)CN2C(=O)c2nc(C)sc2-c2ccccc2)n1	inhibition at 1 µM (CYP2C19 [9]): < 69%; inhibition at 1 µM (CYP3A4 [10]): < 69%; inhibition at 1 µM (CYP2D6 [11]): < 69%; inhibition at 1 µM (CYP2C9 [12]): < 69%; inhibition at 1 µM (CYP1A2 [13]): < 69%; inhibition at 1 µM (CYP3A4 [14]): < 69%
< 89	< 89	< 89	< 89	< 89	8.6	< 89	8	Cc1ccc(-c2nccs2)c(C(=O)N2CC3(CC3)C[C@H]2CNc2ccc(C(F)(F)F)cn2)n1	–
–	–	–	–	–	7.5	–	< 5	Cc1ccc(-n2nccn2)c(C(=O)N2CCC3(CC3)C[C@H]2CNc2ccc(Cl)cn2)c1	–
–	–	–	–	–	8.2	–	8.5	Cc1nc(C(=O)N2CC3(CC3)C[C@H]2CNc2cc(C(F)(F)F)ccn2)c(-c2ccccc2)s1	inhibition at 1 µM (CYP2C19 [9]): < 55%; inhibition at 1 µM (CYP3A4 [10]): < 55%; inhibition at 1 µM (CYP2D6 [11]): < 55%; inhibition at 1 µM (CYP2C9 [12]): < 55%; inhibition at 1 µM (CYP1A2 [13]): < 55%; inhibition at 1 µM (CYP3A4 [14]): < 55%
–	–	–	–	–	6.8	–	6.8	Cc1nc(C(=O)N2CC3(CC3)C[C@H]2CNc2ncc(Cl)cn2)c(-c2ccccc2)s1	–
–	–	–	–	–	7.3	–	7.6	Cc1cccc(NC[C@@H]2CC3(CC3)CN2C(=O)c2nc(C)sc2-c2ccccc2)n1	–
–	–	–	–	–	7.6	–	< 5	Cc1ccc(-c2ncccn2)c(C(=O)N2CCC3(CC3)C[C@H]2CNc2ccc(Cl)cn2)c1	–
< 41	< 41	< 41	< 41	< 41	6.7	< 41	7.1	CS(=O)(=O)c1ccc(-c2ccccc2)c(C(=O)N2CC3(CC3)C[C@H]2CNc2ccc(C(F)(F)F)cn2)c1	–
–	–	–	–	–	8.2	–	< 5	Cc1ccc(-n2nccn2)c(C(=O)N2CCC3(CC3)C[C@H]2CNc2cccc(C)n2)c1	–
< 58	< 58	< 58	< 58	< 58	7	< 58	6.9	O=C(c1nc(OC(F)(F)F)ccc1-c1ncccn1)N1CC2(CC2)C[C@H]1CNc1ccc(C(F)(F)F)cn1	–
–	–	–	–	–	8.3	–	7.1	Cc1nc(C(=O)N2CC3(CC3)C[C@H]2CNc2ccc(Cl)cn2)c(-c2ccccc2)s1	–
–	–	–	–	–	7.1	–	< 5	Cc1ccc(-n2nccn2)c(C(=O)N2CC3(CC3)C[C@H]2CNc2cccc(C)n2)c1	inhibition at 1 µM (CYP2C19 [9]): < 34%; inhibition at 1 µM (CYP3A4 [10]): < 34%; inhibition at 1 µM (CYP2D6 [11]): < 34%; Vd [15]: 0.48 L/kg; inhibition at 1 µM (CYP2C9 [12]): < 34%; inhibition at 1 µM (CYP1A2 [13]): < 34%; clearance [16]: 33.1 mL/min/kg; inhibition at 1 µM (CYP3A4 [14]): < 34%; Kp at 1 h [17]: 0.2
< 71	< 71	< 71	< 71	< 71	8.6	< 71	8.6	Cc1ccc(OCc2ccccc2)c(C(=O)N2CC3(CC3)C[C@H]2CNc2ccc(C(F)(F)F)cn2)n1	–
< 32	< 32	< 32	< 32	< 32	8	< 32	8.1	N#Cc1ccc(-c2ncccn2)c(C(=O)N2CC3(CC3)C[C@H]2CNc2ccc(C(F)(F)F)cn2)c1	–
–	–	–	–	–	7.3	–	7.8	Cc1ccc(-c2ncccn2)c(C(=O)N2CC3(CC3)C[C@H]2CNc2cc(C(F)(F)F)ccn2)c1	inhibition at 1 µM (CYP2C19 [9]): < 72%; inhibition at 1 µM (CYP3A4 [10]): < 72%; inhibition at 1 µM (CYP2D6 [11]): < 72%; inhibition at 1 µM (CYP2C9 [12]): < 72%; inhibition at 1 µM (CYP1A2 [13]): < 72%; inhibition at 1 µM (CYP3A4 [14]): < 72%
